Experiments:
[1] = system: banana embryos or leaf material; assay: Comparison of selection using ALS inhibitor, G418 or hygromycin (genotyping of embryos or leaf material); format: cell-based
From the text: In every case, regenerated material was transformed with constructs containing T-DNA that would generate resistance in positive transformants.

ALS1 or ALS2 = assay: Genotyping of CSF-selected samples (PBE experiments); format: cell-based, banana; settings: across all experiments, embryos and shoots
From the text: gDNA from embryos and plantlets was extracted and qPCR was used to test for the presence of integrated tDNA in the plant genome. Three independent qPCRs were run on each sample with different sets of primers (listed below) spanning the tDNA, ranging from the left to right border. An additional qPCR was run on an endogenous banana gene (actin) for normalisation of Ct values. All qPCRs were run on the LightCycler® 96 System (Roche) using PowerUp™ SYBR® Green Master Mix (Thermo Fisher Scientific™).
For edit validation, amplicons for each target gene (als1, als2, ppo2, aco1) were made using Q5® High-Fidelity 2× Master Mix (New England Biolabs, NEB) using reaction settings listed below. PCR products were purified using Monarch® PCR & DNA Cleanup Kit (NEB) according to manufacturer's specifications. The amplicons were after validated by Sanger sequencing.

## COc1nc(C)nc(NC(=O)NS(=O)(=O)c2ccccc2Cl)n1 [CSF, chlorsulfuron]
[1]; CSF selected material
  Editing frequency: 90-94%
[1]; CSF selection, embryos and shoots
  Efficiency of generating transgenic lines of banana: 75-84%
[1]; Embryos, CSF selection
  Editing frequency: 57/63 = 90.5%
  Non-transgenic edited: 19/584 = 3.2%
  Transgenic frequency: 344/408 = 84.3%
[1]; Shoots, CSF selection
  Editing frequency: 34/36 = 94.4%
  Non-transgenic edited: 3/46 = 6.5%
  Transgenic frequency: 53/70 = 75.7%
ALS1 or ALS2
  Non-transgenic rate in CSF selected samples: > 10%

Reference: patent publication US20250034586A1, “METHOD FOR EDITING BANANA GENES” (Tropic Biosciences UK Limited, priority 2021, published 2025)
